Earlier results on 1 compound are cited in patent US9125936B2, “Ginger extract for the protection of stem cells” (Symrise AG, priority 2013, dated 2015).

For the data set the following is noted: water (20° dH) at 20° C.; solid active agent.

For `Nc1nc2c(ncn2COCCO)c(=O)[nH]1` [Acyclovir, 2-Amino-1,9-dihydro-9-((2-hydroxyethoxy)methyl)-6H-Purin-6-one], the solubility in water result is “less than 5 g/L”.
